Measured values taken from the Kinase Knowledgebase extract (Sharma et al. 2016).

Tests used:
[1] = target: EGFR (Human), P00533 [T790M/L858R]
[2] = target: EGFR (human), P00533 [WT]
[3] = target: EGFR (human), P00533 [T790M]
EGFR (human) = EGFR (human) (UniProt P00533)
Sequence of EGFR (human) (P00533 whole entry, looked up): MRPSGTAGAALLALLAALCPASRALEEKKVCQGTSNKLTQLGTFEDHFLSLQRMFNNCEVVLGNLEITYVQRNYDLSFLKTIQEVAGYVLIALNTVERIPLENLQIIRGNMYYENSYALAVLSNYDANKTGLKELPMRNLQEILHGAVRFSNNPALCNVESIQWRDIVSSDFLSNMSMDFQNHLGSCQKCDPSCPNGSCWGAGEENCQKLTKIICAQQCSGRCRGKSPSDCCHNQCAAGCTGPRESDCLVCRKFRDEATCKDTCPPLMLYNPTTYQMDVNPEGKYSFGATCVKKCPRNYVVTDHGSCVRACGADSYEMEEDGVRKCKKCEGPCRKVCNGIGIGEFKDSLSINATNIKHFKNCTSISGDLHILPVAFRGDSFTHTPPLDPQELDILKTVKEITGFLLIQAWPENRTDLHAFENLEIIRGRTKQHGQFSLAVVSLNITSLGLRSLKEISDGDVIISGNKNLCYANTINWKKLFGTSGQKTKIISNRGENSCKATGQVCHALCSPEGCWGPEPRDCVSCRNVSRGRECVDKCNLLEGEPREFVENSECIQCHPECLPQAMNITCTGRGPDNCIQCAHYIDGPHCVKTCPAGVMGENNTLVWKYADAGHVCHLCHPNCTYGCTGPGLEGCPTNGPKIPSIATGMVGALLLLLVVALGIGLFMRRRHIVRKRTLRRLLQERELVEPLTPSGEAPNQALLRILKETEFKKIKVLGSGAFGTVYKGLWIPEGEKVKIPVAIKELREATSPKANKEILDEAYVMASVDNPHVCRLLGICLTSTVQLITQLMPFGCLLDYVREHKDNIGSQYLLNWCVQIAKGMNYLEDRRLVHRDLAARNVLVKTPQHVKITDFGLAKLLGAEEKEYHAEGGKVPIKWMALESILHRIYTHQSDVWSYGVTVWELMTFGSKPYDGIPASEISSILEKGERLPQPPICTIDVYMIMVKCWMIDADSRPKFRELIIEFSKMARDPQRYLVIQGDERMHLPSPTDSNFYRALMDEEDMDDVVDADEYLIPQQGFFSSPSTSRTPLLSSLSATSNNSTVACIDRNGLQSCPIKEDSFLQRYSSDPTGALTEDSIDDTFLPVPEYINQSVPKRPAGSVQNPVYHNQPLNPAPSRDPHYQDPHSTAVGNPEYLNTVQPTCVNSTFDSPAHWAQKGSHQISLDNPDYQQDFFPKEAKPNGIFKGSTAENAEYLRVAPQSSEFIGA

Sequence of EGFR (human), P00533 [WT] (P00533 whole entry, looked up): as above
Sequence of EGFR (human), P00533 [T790M] (P00533 whole entry T790M, looked up): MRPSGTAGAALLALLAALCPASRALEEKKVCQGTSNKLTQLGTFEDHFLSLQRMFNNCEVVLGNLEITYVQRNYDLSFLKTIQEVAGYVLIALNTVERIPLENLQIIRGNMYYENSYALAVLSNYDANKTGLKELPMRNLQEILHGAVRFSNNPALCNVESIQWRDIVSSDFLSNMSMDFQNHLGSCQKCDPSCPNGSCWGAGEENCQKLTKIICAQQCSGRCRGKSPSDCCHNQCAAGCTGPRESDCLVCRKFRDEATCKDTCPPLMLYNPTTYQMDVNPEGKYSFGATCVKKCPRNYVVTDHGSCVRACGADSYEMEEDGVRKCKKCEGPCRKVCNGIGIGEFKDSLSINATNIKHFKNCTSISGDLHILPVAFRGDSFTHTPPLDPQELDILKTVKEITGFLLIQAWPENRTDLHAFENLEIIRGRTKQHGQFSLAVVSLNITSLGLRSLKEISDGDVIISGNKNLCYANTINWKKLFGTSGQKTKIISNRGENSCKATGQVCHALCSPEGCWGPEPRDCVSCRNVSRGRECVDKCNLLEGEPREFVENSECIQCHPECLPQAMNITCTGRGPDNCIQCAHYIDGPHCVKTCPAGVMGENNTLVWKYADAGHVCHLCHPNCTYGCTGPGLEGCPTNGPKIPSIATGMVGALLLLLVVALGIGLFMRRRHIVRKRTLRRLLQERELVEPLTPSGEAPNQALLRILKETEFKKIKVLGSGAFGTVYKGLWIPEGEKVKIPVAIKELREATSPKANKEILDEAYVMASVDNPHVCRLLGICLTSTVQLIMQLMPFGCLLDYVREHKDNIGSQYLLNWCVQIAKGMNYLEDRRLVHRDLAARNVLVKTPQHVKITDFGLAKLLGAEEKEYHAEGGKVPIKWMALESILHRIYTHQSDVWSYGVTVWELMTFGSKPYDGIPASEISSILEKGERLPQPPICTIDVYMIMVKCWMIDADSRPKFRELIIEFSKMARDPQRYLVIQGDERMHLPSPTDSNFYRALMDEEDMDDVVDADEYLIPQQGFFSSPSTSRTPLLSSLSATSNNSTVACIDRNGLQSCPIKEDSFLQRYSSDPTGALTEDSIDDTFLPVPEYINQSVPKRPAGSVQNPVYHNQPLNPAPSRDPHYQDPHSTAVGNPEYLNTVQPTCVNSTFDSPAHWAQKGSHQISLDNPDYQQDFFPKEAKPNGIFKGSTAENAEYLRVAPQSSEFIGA
Sequence of EGFR (Human), P00533 [T790M/L858R] (P00533 whole entry T790M/L858R, looked up): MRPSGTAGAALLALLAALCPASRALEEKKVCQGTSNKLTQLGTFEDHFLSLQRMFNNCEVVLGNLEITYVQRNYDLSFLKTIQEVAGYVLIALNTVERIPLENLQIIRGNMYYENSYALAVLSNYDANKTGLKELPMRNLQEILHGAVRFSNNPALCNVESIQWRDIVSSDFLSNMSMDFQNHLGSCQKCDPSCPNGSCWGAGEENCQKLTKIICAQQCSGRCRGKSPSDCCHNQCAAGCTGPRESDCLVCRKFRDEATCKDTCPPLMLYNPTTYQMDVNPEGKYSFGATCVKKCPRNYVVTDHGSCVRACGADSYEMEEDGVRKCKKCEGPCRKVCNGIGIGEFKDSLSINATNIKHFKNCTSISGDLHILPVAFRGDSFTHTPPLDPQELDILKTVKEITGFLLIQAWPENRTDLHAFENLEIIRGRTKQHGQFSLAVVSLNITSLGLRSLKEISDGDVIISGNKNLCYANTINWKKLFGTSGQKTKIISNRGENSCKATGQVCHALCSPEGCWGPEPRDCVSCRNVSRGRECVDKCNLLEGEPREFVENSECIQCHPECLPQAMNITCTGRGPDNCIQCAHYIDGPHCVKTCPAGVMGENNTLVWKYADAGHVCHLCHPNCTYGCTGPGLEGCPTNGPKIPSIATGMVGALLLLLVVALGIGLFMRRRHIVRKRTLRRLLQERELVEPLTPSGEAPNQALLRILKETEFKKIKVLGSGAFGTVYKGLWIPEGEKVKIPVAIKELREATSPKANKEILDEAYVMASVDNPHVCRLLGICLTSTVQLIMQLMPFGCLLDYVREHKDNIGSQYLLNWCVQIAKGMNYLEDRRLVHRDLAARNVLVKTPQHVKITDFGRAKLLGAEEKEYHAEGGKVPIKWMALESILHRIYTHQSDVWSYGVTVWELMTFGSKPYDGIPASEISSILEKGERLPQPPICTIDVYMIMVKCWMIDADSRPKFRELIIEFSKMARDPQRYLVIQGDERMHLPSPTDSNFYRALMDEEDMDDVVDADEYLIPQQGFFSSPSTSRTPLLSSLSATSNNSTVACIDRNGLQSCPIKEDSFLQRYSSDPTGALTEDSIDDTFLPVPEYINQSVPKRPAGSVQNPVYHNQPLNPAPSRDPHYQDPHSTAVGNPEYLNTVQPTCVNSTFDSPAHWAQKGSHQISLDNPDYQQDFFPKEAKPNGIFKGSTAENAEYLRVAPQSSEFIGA

| SMILES | IC50 [2] [nM] | other results |
| --- | --- | --- |
| C=CC(=O)Nc1cccc(Nc2ncc(C)c(Nc3ccccc3)n2)c1 | ≤ 10 | IC50 [1]: ≤ 10 nM |
| C=CC(=O)N1CCC[C@@H](Nc2nc(Nc3cccc(Cl)c3)ncc2F)C1 | ≤ 10 |  |
| C=CC(=O)Nc1cccc(Nc2nccc(Nc3cccc(C)c3)n2)c1 | ≤ 10 | IC50 [1]: ≤ 10 nM |
| C=CC(=O)Nc1cccc(Oc2nc(Nc3ccc(OCCOC)cc3)ncc2C2CC2)c1 | ≤ 10 |  |
| C=CC(=O)Nc1cccc(Nc2ncc(C)c(Nc3cccc(C)c3)n2)c1 |  | IC50 [1]: ≤ 10 nM; IC50 [3]: ≤ 10 nM |
| C=CC(=O)Nc1cccc(Nc2nc(Nc3ccc(OCC(O)CO)cc3)ncc2F)c1 (centres undefined) | ≤ 10 |  |
| C=CC(=O)Nc1cccc(Nc2nc(Nc3cccc(OCCCN4CCCC4=O)c3)ncc2F)c1 | ≤ 10 |  |
| C=CC(=O)Nc1cccc(Nc2nc(Nc3cccc(OCC4CCCN(C)C4)c3)ncc2F)c1 (centres undefined) | ≤ 10 |  |
| C=CC(=O)Nc1cccc(Oc2nc(Nc3cccc(OC)c3)ncc2C(=O)NC2CC2)c1 | ≤ 10 |  |
| C=CC(=O)Nc1cccc(Nc2nc(Nc3ccccc3)ncc2C#N)c1 | ≤ 10 |  |
| C=CC(=O)Nc1cccc(Nc2nc(Nc3cccc(OCC4CCN(C)CC4)c3)ncc2F)c1 | ≤ 10 |  |
| C=CC(=O)Nc1cccc(Nc2nc(Nc3ccc(OCC4CCN(C)CC4)nc3)ncc2F)c1 | ≤ 10 |  |
| C=CC(=O)Nc1cccc(Nc2nc(Nc3ccc(OCCOC)cc3)ncc2C#N)c1 | ≤ 10 |  |
| C=CC(=O)Nc1cccc(Oc2nc(Nc3ccc(OC)nc3)ncc2C)c1 | ≤ 10 |  |
| C=CC(=O)Nc1cccc(Nc2nc(Nc3ccc4c(cnn4C)c3)ncc2F)c1 | ≤ 10 |  |
| Cc1cccc(Nc2nc(Nc3cccc(NC(=O)/C=C/CN4CC[C@H](O)C4)c3)ncc2F)c1 | ≤ 10 |  |
| Cc1cccc(Nc2nc(Nc3cccc(NC(=O)/C=C/CN(C)C)c3)ncc2F)c1 | ≤ 10 | IC50 [1]: ≤ 10 nM; IC50 [3]: ≤ 10 nM |
| C=CC(=O)Nc1cccc(Oc2nc(Nc3cccc(N4CCN(CCO)CC4)c3)ncc2F)c1 | ≤ 10 |  |
| C=CC(=O)Nc1cccc(Nc2nc(Nc3ccc(OC)nc3)ncc2C#N)c1 | ≤ 10 |  |
| C=CC(=O)Nc1cccc(Nc2nc(Nc3ccc(OC)nc3)ncc2C2CC2)c1 | ≤ 10 |  |
| C=CC(=O)Nc1cccc(Nc2nc(Nc3cccc(OCC(O)CO)c3)ncc2F)c1 (centres undefined) | ≤ 10 |  |

| SMILES | IC50 [2] [nM] | other results |
| --- | --- | --- |
| C=CC(=O)Nc1cccc(Oc2nc(Nc3cccc(OCCCS(C)(=O)=O)c3)ncc2F)c1 | ≤ 10 |  |
| C=CC(=O)Nc1cccc(Nc2nc(Nc3ccc(OCC4CCN(C)CC4)cc3)ncc2F)c1 | ≤ 10 |  |
| C=CC(=O)Nc1cccc(Nc2nc(Nc3cccc(S(N)(=O)=O)c3)ncc2C)c1 | ≤ 10 |  |
| C=CC(=O)Nc1cccc(Nc2nc(Nc3ccc(OCCOC)c(F)c3)ncc2C(F)(F)F)c1 | ≤ 10 |  |
| C=CC(=O)Nc1cccc(Oc2nc(Nc3cccc(OCC4CCN(C)CC4)c3)ncc2F)c1 | ≤ 10 |  |
| C=CC(=O)Nc1cccc(Oc2nc(Nc3cccc(OC)c3)ncc2C(=O)Nc2ccccc2)c1 | ≤ 10 |  |
| C=CC(=O)Nc1cccc(Nc2nc(Nc3ccc(OCCCNC(=O)OC(C)(C)C)cc3)ncc2F)c1 | ≤ 10 |  |
| C=CC(=O)Nc1ccc(C)c(Nc2nccc(-c3cccnc3)n2)c1 |  | IC50 [1]: ≤ 10 nM; IC50 (EGFR (human)): 2.23 nM |
| C=CC(=O)Nc1ccc(C)c(Nc2ncc(C)c(Nc3cccc(C)c3)n2)c1 | ≤ 10 | IC50 [1]: ≤ 10 nM |
| C=CC(=O)Nc1cccc(Nc2nc(Nc3cccc(OCCN(C)C)c3)ncc2F)c1 | ≤ 10 |  |
| C=CC(=O)Nc1cccc(Oc2nc(Nc3ccc(OC)nc3)ncc2C(=O)Nc2ccccc2)c1 | ≤ 10 |  |
| C=CC(=O)Nc1cccc(Oc2nc(Nc3ccc(OC)nc3)ncc2C(C)=O)c1 | ≤ 10 |  |
| C=CC(=O)Nc1cccc(Nc2nc(Nc3cccc(S(N)(=O)=O)c3)ncc2F)c1 | ≤ 10 |  |
| C=CC(=O)N1CCOc2ccc(Nc3nc(Nc4ccc(OCCOC)cc4)ncc3C(C)=O)cc21 | ≤ 10 |  |
| C=CC(=O)Nc1cccc(Oc2nc(Nc3cccc(OCC4CCCN(C)C4)c3)ncc2F)c1 (centres undefined) | ≤ 10 |  |
| C=CC(=O)Nc1cccc(Nc2nc(Nc3ccc(N4CCS(=O)(=O)CC4)nc3)ncc2F)c1 | ≤ 10 |  |
| C=C(C)C(=O)Cc1cccc(Nc2nc(Nc3ccc(OCCOC)c(F)c3)ncc2F)c1 | ≤ 10 |  |
| C=CC(=O)Nc1cccc(Nc2nc(Nc3ccc4c(c3)CC(=O)N4)ncc2F)c1 | ≤ 10 |  |
| C=CC(=O)Nc1cccc(Nc2nc(Nc3ccc4[nH]ncc4c3)ncc2F)c1 | ≤ 10 |  |
| C#CCOc1cccc(Nc2ncc(C)c(Nc3cccc(NC(=O)C=C)c3)n2)c1 |  | IC50 [1]: ≤ 10 nM |
| C=CC(=O)Nc1cccc(Oc2nc(Nc3cccc(OCCN4CCCC4=O)c3)ncc2F)c1 | ≤ 10 |  |

| SMILES | IC50 [2] [nM] | other results |
| --- | --- | --- |
| C=CC(=O)Nc1ccc(Nc2nc(Nc3ccc(OC)nc3)ncc2C(F)(F)F)cc1 | ≤ 10 |  |
| C=CC(=O)Nc1cccc(Oc2nc(Nc3cccc(OCCCN4CCCC4=O)c3)ncc2F)c1 | ≤ 10 |  |
| C=CC(=O)Nc1cccc(Nc2nc(Nc3ccc(OCC(O)CO)c(F)c3)ncc2F)c1 (centres undefined) | ≤ 10 |  |
| C=CC(=O)Nc1cccc(Nc2nc(Nc3ccc4c(c3)NCCO4)ncc2F)c1 | ≤ 10 |  |
| C=CC(=O)Nc1cccc(Nc2nc(Nc3ccccc3)ncc2C)c1 | ≤ 10 | IC50 [1]: ≤ 10 nM |
| C=CC(=O)Nc1cccc(Nc2nc(Nc3cccc(CO)c3)ncc2F)c1 | ≤ 10 |  |
| C=CC(=O)Nc1cccc(Oc2nc(Nc3cccc(OC)c3)ncc2C(N)=O)c1 | ≤ 10 |  |
| Cc1cccc(Nc2nc(Nc3cccc(NC(=O)/C=C/CN4CC[C@@H](O)C4)c3)ncc2F)c1 | ≤ 10 |  |
| C=CC(=O)Nc1cccc(Nc2nc(Nc3ccccc3)ncc2C(F)(F)F)c1 | ≤ 10 |  |
| C=CC(=O)N1CCOc2ccc(Nc3nc(Nc4ccc(N5CCOCC5)cc4)ncc3C(C)=O)cc21 | ≤ 10 |  |
| COCCN(C)C/C=C/C(=O)Nc1cccc(Nc2ncc(F)c(Nc3cccc(C)c3)n2)c1 | ≤ 10 |  |
| C=CC(=O)Nc1cccc(Nc2nc(Nc3ccc(OCCOC)cc3)ncc2F)c1 | ≤ 10 |  |
| C=CC(=O)Nc1cccc(Nc2nc(Nc3ccc(OCCOC)c(F)c3)ncc2C#N)c1 | ≤ 10 |  |
| Cc1cnc(Nc2ccccc2)nc1Nc1cccc(NC(=O)/C=C/CN(C)C)c1 |  | IC50 [1]: ≤ 10 nM |
| Cc1cnc(Nc2cccc(S(N)(=O)=O)c2)nc1Nc1ccc2c(c1)CCN(C(=O)CCl)C2 | ≤ 10 | IC50 [1]: ≤ 10 nM |
| C=CC(=O)Nc1cccc(Nc2nc(Nc3ccc(OCCOC)c(F)c3)ncc2F)c1 |  | IC50 [1]: ≤ 10 nM; IC50 [3]: ≤ 10 nM |
| C=CC(=O)Nc1cccc(Nc2ncc(F)c(Nc3cccc(C)c3)n2)c1 | ≤ 10 | IC50 [1]: ≤ 10 nM; IC50 [3]: ≤ 10 nM |
| C=CC(=O)Nc1cccc(Oc2nc(Nc3ccc(OC)nc3)ncc2C(=O)NC2CC2)c1 | ≤ 10 |  |
| C=CC(=O)Nc1cccc(Oc2nc(Nc3ccccc3)ncc2C)c1 | ≤ 10 |  |
| Cc1cccc(Nc2nc(Nc3cccc(NC(=O)/C=C/CN(C)C)c3)ncc2C)c1 | ≤ 10 |  |
